# Measured values published in ChEMBL document CHEMBL5726766, “Sulfonamide compounds as voltage-gated sodium channel modulators” (2019).
# How the values were obtained:
# [1] = (§1) Membrane potential dye assay: HEK-293 cells overexpressing the channel of interest were seeded in a 96-well plate at a density of 30000 cells/well and incubated at 37° C./5% CO2 for 48 hr. The assay was carried out using the Red Membrane Potential Dye (Molecular Devices) following the manufacturer's instructions. Briefly, the cells were incubated with 1× red membrane potential dye for 1.5 hour. The cells were then treated with various concentrations of the test compounds for 15-20 min followed by depolarization with 10-30 μM Veratridine. The fluorescence was read following excitation at 510-545 nm and emission at 565-625 nm in FLIPR. The “max-min” fluorescence values were used to calculate the % inhibition.; conditions: HEK293
# [2] = as §1; conditions: HEK293; remark: listed apart in the source
Compound,IC50 [1] [µM],IC50 [2] [µM]
O=S(=O)(Nc1ncccn1)c1ccc2c(c1)OCC[C@H]2c1ccc(C(F)(F)F)cc1O[C@H]1CCOC1,0.149,> 10
O=S(=O)(Nc1cccc(F)n1)c1ccc2c(c1)OCC[C@@H]2c1ccc(C(F)(F)F)cc1O[C@H]1CCOC1,0.0009,–
O=S(=O)(Nc1ncccn1)c1ccc2c(c1)OCC[C@@H]2c1ccc(C(F)(F)F)cc1O[C@@H]1CCOC1,1.02,> 10
O=S(=O)(Nc1cccc(F)n1)c1ccc2c(c1)OCC[C@H]2c1ccc(C(F)(F)F)cc1O[C@H]1CCOC1,0.831,> 10
O=S(=O)(Nc1ncc(F)cn1)c1ccc2c(c1)OCC[C@@H]2c1ccc(C(F)(F)F)cc1-c1nccs1,0.011,> 10
Cc1nc(-c2cc(C(F)(F)F)ccc2[C@@H]2CCOc3cc(S(=O)(=O)Nc4ncc(F)cn4)ccc32)cs1,0.016,> 10
O=S(=O)(Nc1ncccn1)c1ccc2c(c1)OCC[C@@H]2c1ccc(C(F)(F)F)cc1O[C@H]1CCOC1,0.038,–
O=S(=O)(Nc1ncccn1)c1ccc2c(c1)OCC[C@H]2c1ccc(C(F)(F)F)cc1O[C@@H]1CCOC1,0.083,–
Cc1nc(-c2cc(C(F)(F)F)ccc2[C@H]2CCOc3cc(S(=O)(=O)Nc4ncc(F)cn4)ccc32)cs1,0.008,> 10
O=S(=O)(Nc1ncccn1)c1ccc2c(c1)OCC[C@H]2c1ccc(C(F)(F)F)cc1OCCCF,> 10,> 10
O=S(=O)(Nc1ncc(F)cn1)c1ccc2c(c1)OCC[C@H]2c1ccc(C(F)(F)F)cc1-c1nccs1,1.12,> 10
O=S1(=O)CCN(c2cc(C(F)(F)F)ccc2[C@H]2CCOc3cc(S(=O)(=O)Nc4ccncn4)ccc32)CC1 (racemic),–,> 10
O=S1(=O)CCN(c2cc(C(F)(F)F)ccc2[C@H]2CCOc3cc(S(=O)(=O)Nc4cccc(F)n4)ccc32)CC1 (racemic),–,> 10
O=S1(=O)CCN(c2cc(C(F)(F)F)ccc2[C@H]2CCOc3cc(S(=O)(=O)Nc4ncc(F)cn4)ccc32)CC1 (racemic),–,> 10
O=S1(=O)CCN(c2cc(C(F)(F)F)ccc2[C@H]2CCOc3cc(S(=O)(=O)Nc4cccnn4)ccc32)CC1 (racemic),–,> 10
O=S(=O)(Nc1ccncn1)c1ccc2c(c1)OCC[C@@H]2c1ccc(C(F)(F)F)cc1Cl (racemic),–,> 10
COCCc1cc(C(F)(F)F)ccc1[C@H]1CCOc2cc(S(=O)(=O)Nc3ccncn3)ccc21 (racemic),–,> 10
COCCc1cc(C(F)(F)F)ccc1[C@H]1CCOc2cc(S(=O)(=O)Nc3cccnn3)ccc21 (racemic),–,> 10
COCCOc1cc(C(F)(F)F)ccc1[C@H]1CCOc2cc(S(=O)(=O)Nc3ncc(F)cn3)ccc21 (racemic),–,> 10
O=C(O)c1ccc(-c2cc(C(F)(F)F)ccc2[C@H]2CCOc3cc(S(=O)(=O)Nc4cccc(F)n4)ccc32)cc1 (racemic),–,> 10

Compound,IC50 [1] [µM],IC50 [2] [µM]
COCCc1cc(C(F)(F)F)ccc1[C@H]1CCOc2cc(S(=O)(=O)Nc3ncccn3)ccc21 (racemic),–,> 10
O=S(=O)(Nc1ncc(F)cn1)c1ccc2c(c1)OCC[C@@H]2c1ccc(C(F)(F)F)cc1CCF (racemic),–,> 10
O=C1OCCN1c1cc(C(F)(F)F)ccc1[C@H]1CCOc2cc(S(=O)(=O)Nc3ncc(F)cn3)ccc21 (racemic),–,> 10
O=C1CCCN1c1cc(C(F)(F)F)ccc1[C@H]1CCOc2cc(S(=O)(=O)Nc3cccnn3)ccc21 (racemic),–,> 10
O=C(O)c1ccc(-c2cc(C(F)(F)F)ccc2[C@H]2CCOc3cc(S(=O)(=O)Nc4cccnn4)ccc32)cc1 (racemic),–,> 10
COCCCOc1cc(C(F)(F)F)ccc1[C@H]1CCOc2cc(S(=O)(=O)Nc3ncc(F)cn3)ccc21 (racemic),–,> 10
COCCCCc1cc(C(F)(F)F)ccc1[C@H]1CCOc2cc(S(=O)(=O)Nc3ncc(F)cn3)ccc21 (racemic),–,> 10
O=S(=O)(Nc1ncc(F)cn1)c1ccc2c(c1)OCC[C@@H]2c1ccc(C(F)(F)F)cc1CCC(F)F (racemic),–,> 10
O=S(=O)(Nc1ncccn1)c1ccc2c(c1)OCC[C@@H]2c1ccc(C(F)(F)F)cc1Cl (racemic),–,> 10
O=C1OCCN1c1cc(C(F)(F)F)ccc1[C@H]1CCOc2cc(S(=O)(=O)Nc3ncccn3)ccc21 (racemic),–,> 10
O=C1CCCN1c1cc(C(F)(F)F)ccc1[C@H]1CCOc2cc(S(=O)(=O)Nc3ncccn3)ccc21 (racemic),–,> 10
O=S(=O)(Nc1ncc(F)cn1)c1ccc2c(c1)OCC[C@@H]2c1ccc(C(F)(F)F)cc1OC1COC1 (racemic),–,> 10
O=S(=O)(Nc1ccncn1)c1ccc2c(c1)OCC[C@@H]2c1ccc(C(F)(F)F)cc1CCF (racemic),–,> 10
O=C1OCCN1c1cc(C(F)(F)F)ccc1[C@H]1CCOc2cc(S(=O)(=O)Nc3cccc(F)n3)ccc21 (racemic),–,> 10
O=C1CCCN1c1cc(C(F)(F)F)ccc1[C@H]1CCOc2cc(S(=O)(=O)Nc3ccncn3)ccc21 (racemic),–,> 10
O=S(=O)(Nc1ncc(F)cn1)c1ccc2c(c1)OCC[C@@H]2c1ccc(C(F)(F)F)cc1Cl (racemic),–,> 10
COCCCc1cc(C(F)(F)F)ccc1[C@H]1CCOc2cc(S(=O)(=O)Nc3ncc(F)cn3)ccc21 (racemic),–,> 10
O=S(=O)(Nc1cccc(F)n1)c1ccc2c(c1)OCC[C@@H]2c1ccc(C(F)(F)F)cc1CCF (racemic),–,> 10
O=S(=O)(Nc1cccnn1)c1ccc2c(c1)OCC[C@@H]2c1ccc(C(F)(F)F)cc1Cl (racemic),–,> 10
